Experimental findings from patent US8822517B2, “Arylosulfonamides for the treatment of CNS diseases” (Adamed SP. Z O.O., priority 2010, dated 2014) are described below.

SMILES strings stand for the structures.

The target in experiment [1] is histaminergic H1 receptor (Homo sapiens, UniProt P35367). The experiment can be described thus: Binding assay H1 (h), [3H]pyrilamine, HEK-293 cells. Details: expressed in transfected cells; host or cells: HEK-293 cells. As to conditions: read-out: H1 [%]. The procedure: (§1) The specific ligand binding to the receptors is defined as the difference between the total binding and the nonspecific binding determined in the presence of an excess of so unlabelled ligand.
Chain of histaminergic H1 receptor (P35367 whole entry): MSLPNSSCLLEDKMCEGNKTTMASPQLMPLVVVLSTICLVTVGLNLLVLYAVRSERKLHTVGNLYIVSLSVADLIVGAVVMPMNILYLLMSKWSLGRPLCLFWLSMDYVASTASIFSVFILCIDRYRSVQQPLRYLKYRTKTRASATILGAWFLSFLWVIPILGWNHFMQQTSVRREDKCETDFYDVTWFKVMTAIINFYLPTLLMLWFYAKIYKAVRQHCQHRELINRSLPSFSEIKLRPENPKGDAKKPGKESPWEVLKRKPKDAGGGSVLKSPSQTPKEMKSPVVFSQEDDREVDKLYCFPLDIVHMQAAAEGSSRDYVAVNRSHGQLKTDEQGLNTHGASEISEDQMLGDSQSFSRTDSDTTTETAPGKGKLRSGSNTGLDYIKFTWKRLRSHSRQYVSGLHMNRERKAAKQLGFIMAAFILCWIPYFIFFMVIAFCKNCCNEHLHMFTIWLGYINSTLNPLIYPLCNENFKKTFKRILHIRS
(§2) The specific Ligand binding to the receptor is defined as the difference between total and non-specific binding determined in the presence of an excess of unlabelled ligand. The compounds were tested at a concentration of 1×10^−6 M, and scintillation counting was the method of detection of ligand binding.

Experiment [2] concerns the target dopaminergic D2 receptor (Homo sapiens, UniProt P14416). The experiment can be described thus: Binding assay D2S (h), [3H]methyl-spiperone, HEK-293 cells. Details: expressed in transfected cells; host or cells: HEK-293 cells. Particulars: read-out: D2 [%]. Put shortly:
(§3)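 Compounds tested at a single 1×10^−6 M concentration against the listed radioligands; bound label counted by scintillation, with non-specific binding defined by excess unlabelled ligand and subtracted from total.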

The test system of experiment [3] is sigma σ receptor. The experiment can be described thus: Binding assay σ (non-selective), [3H]DTG, rat cerebral cortex. As to conditions: percent inhibition of control specific binding; compounds tested at 1×10^−6 M. The procedure:
as §1, §2

Experiment [4] deals with T1, serotoninergic receptor 5-HT2C (Homo sapiens, UniProt P28335).
T1 construct: expressed in transfected cells; host or cells: HEK-293 cells
T1 sequence (P28335 33-458): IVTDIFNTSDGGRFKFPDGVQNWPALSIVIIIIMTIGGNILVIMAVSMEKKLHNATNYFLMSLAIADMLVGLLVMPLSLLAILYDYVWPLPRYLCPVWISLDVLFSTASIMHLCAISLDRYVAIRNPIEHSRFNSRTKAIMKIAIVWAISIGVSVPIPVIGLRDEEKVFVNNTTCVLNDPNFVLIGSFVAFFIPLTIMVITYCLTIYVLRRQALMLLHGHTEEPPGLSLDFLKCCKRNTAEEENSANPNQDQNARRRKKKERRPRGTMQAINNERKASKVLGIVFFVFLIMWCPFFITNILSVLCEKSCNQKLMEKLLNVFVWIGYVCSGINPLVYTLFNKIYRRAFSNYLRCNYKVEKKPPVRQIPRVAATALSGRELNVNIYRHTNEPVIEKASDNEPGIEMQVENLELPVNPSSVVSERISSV
The experiment can be described thus: Binding assay 5-HT2C (h), [3H]mesulergine, HEK-293 cells. Particulars: read-out: 5-HT2C [%]. The procedure: as §1, §2

For experiment [5], the target named is T2, serotonine transporter (SERT) receptor (Homo sapiens, UniProt P31645).
T2 construct: expressed in transfected cells; host or cells: CHO cells
T2 sequence (P31645 whole entry): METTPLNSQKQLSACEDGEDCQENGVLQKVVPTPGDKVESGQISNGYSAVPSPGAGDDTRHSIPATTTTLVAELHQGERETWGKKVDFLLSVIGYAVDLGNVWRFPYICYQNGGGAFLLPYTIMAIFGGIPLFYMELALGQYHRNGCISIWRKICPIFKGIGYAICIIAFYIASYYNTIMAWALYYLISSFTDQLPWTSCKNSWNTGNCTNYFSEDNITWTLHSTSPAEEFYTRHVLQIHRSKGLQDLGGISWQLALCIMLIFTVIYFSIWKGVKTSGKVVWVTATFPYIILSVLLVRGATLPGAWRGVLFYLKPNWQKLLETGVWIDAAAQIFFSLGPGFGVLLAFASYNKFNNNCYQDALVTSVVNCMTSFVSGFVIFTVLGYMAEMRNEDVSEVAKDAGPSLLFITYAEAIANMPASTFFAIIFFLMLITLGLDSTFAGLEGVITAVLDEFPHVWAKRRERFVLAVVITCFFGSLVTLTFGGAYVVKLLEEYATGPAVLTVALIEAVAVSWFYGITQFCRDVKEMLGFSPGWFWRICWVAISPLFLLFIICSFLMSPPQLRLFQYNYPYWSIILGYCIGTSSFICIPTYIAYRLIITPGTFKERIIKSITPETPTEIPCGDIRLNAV
The experiment is described as follows: Binding assay SERT (h), [3H]imipramine, CHO cells. As to conditions: read-out: SERT [%]. In a few lines:
as §3

The target in experiment [6] is serotoninergic 5-HT7 receptor (Homo sapiens, UniProt P34969). The experiment is described as follows: Binding assay 5-HT7 (h), [3H]LSD, CHO cells. Particulars: read-out: 5-HT7. The arrangement: expressed in transfected cells; host or cells: CHO cells. In a few lines:
as §3

The target of experiment [7] is serotoninergic 5-HT2A receptor (Homo sapiens, UniProt P28223). The experiment is described as follows: Binding assay 5-HT2A (h), [3H]ketanserin, HEK-293 cells. Details: expressed in transfected cells; host or cells: HEK-293 cells. Particulars: read-out: 5-HT2A. Put shortly: as §3
Chain of serotoninergic 5-HT2A receptor (P28223 whole entry): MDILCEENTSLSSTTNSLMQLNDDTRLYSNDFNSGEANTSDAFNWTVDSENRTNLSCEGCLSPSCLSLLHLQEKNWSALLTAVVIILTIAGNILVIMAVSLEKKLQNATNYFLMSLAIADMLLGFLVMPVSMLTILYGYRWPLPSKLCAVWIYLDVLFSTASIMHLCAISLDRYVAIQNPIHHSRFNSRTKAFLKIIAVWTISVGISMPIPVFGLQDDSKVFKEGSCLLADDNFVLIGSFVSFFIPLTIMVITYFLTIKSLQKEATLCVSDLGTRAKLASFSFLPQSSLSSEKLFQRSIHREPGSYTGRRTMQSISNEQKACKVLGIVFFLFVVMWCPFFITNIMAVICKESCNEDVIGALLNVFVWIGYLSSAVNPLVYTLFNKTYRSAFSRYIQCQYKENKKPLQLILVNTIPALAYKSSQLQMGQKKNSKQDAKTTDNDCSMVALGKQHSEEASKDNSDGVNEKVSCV
The subject of experiment [8] is adrenergic α1 receptor. The experiment can be described thus: Binding assay α1 (non-selective), [3H]prazosin, rat cerebral cortex. Particulars: percent inhibition of control specific binding; compounds tested at 1×10^−6 M. Put shortly: as §3
In experiment [9] the target is dopaminergic D3 receptor (Homo sapiens, UniProt P35462). The experiment can be described thus: Binding assay D3 (h), [3H]methyl-spiperone, CHO cells. The arrangement: expressed in transfected cells; host or cells: CHO cells. As to conditions: read-out: D3 [%]. Put shortly: as §3
Chain of dopaminergic D3 receptor (P35462 whole entry): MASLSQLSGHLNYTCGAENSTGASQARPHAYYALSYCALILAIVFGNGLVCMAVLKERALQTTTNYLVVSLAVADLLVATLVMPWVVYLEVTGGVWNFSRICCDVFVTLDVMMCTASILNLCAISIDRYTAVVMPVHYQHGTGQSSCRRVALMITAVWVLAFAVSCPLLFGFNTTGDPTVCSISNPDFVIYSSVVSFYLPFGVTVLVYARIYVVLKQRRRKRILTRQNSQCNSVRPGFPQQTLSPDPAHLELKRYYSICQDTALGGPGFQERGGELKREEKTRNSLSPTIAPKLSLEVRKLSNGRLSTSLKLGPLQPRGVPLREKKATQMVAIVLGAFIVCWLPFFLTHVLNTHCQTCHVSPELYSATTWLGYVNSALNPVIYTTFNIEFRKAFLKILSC
The target of experiment [10] is T3, muscarinic M3 receptor (Homo sapiens, UniProt P20309).
T3 construct: expressed in transfected cells; host or cells: CHO cells
T3 sequence (P20309 whole entry): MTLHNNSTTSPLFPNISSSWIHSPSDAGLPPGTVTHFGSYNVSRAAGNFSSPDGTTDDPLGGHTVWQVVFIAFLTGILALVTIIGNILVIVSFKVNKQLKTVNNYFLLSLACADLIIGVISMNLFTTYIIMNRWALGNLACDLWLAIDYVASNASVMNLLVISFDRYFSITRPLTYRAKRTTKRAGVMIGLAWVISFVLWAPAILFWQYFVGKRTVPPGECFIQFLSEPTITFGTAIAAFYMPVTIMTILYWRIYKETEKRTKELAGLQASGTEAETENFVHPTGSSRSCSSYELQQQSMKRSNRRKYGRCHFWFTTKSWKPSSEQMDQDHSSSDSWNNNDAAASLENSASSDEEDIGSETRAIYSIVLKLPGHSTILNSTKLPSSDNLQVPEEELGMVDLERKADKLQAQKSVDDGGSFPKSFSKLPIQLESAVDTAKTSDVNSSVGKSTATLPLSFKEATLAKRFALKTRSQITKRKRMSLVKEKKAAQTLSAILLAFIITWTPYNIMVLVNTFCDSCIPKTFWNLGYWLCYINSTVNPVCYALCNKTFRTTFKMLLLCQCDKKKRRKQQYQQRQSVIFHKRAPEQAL
The experiment can be described thus: Binding assay M3 (h), [3H]4-DAMP, CHO cells. As to conditions: read-out: M3 [%]. The procedure: as §1, §2

The target of experiment [11] is serotoninergic 5-HT6 receptor (Homo sapiens, UniProt P50406). The experiment can be described thus: Binding assay 5-HT6 (h), [3H]LSD, CHO cells. As to conditions: read-out: 5-HT6. Details: expressed in transfected cells; host or cells: CHO cells. Put shortly:
as §3

For experiment [12], the target named is T4, adrenergic α2C receptor (Homo sapiens, UniProt P18825).
T4 sequence (P18825 1-462): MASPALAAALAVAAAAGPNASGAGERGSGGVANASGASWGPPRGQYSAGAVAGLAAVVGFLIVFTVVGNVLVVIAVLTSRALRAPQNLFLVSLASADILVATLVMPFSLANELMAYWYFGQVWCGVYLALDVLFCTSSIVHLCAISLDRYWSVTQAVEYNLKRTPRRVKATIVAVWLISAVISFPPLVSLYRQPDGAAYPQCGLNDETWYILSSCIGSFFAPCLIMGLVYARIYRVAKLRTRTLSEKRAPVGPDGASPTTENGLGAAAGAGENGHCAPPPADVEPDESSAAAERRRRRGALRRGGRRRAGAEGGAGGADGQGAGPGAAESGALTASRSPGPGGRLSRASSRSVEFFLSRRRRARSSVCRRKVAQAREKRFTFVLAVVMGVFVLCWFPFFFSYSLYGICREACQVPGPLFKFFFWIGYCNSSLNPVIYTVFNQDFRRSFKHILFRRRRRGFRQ
The experiment can be described thus: Binding assay α2C (h), [3H]RX 821002, CHO cells. The arrangement: expressed in transfected cells; host or cells: CHO cells. As to conditions: read-out: α2C [%]. The procedure: as §1, §2

The target of experiment [13] is T5, serotoninergic 5-HT1A receptor (Homo sapiens, UniProt P08908).
T5 sequence (P08908 1-422): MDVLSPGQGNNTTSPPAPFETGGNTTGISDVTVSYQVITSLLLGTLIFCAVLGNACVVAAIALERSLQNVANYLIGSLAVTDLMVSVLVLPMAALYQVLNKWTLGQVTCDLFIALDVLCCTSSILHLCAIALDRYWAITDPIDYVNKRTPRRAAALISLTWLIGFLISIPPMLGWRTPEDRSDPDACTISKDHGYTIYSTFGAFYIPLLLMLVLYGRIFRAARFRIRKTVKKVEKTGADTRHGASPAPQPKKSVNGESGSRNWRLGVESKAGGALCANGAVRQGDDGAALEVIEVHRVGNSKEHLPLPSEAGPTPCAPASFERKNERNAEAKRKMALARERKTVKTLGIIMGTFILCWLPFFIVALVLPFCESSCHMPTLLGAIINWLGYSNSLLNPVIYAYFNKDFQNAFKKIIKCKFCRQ
The experiment can be described thus: Binding assay 5-HT1A (h), [3H]8-OH-DPAT, HEK-293 cells. The arrangement: expressed in transfected cells; host or cells: HEK-293 cells. Particulars: read-out: 5-HT1A. Put shortly: as §3

Chain of serotoninergic 5-HT7 receptor (P34969 whole entry): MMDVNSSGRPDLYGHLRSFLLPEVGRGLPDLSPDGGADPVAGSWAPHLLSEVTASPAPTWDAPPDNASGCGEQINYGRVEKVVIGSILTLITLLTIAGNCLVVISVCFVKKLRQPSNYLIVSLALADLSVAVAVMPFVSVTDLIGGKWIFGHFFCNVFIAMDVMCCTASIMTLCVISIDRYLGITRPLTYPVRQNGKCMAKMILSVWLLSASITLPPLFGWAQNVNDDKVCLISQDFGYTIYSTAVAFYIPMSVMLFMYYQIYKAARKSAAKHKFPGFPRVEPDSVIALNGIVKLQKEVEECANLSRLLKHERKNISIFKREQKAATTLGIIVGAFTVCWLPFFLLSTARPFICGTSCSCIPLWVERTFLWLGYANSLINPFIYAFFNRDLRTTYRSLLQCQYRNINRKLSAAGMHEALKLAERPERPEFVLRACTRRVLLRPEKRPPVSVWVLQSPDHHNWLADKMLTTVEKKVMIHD
Chain of dopaminergic D2 receptor (P14416 1-414 isoform P14416-2): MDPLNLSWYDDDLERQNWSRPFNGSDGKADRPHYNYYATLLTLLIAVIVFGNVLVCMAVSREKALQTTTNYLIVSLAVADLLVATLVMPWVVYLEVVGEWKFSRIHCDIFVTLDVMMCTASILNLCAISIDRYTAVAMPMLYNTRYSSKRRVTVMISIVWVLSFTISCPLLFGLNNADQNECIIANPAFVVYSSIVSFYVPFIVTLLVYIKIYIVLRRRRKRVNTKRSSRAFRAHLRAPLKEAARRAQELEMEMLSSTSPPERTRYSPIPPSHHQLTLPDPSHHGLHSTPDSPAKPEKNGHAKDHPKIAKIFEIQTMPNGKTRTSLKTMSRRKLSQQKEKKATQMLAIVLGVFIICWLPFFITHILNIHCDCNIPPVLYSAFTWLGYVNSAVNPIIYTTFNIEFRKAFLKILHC
Chain of serotoninergic 5-HT6 receptor (P50406 whole entry): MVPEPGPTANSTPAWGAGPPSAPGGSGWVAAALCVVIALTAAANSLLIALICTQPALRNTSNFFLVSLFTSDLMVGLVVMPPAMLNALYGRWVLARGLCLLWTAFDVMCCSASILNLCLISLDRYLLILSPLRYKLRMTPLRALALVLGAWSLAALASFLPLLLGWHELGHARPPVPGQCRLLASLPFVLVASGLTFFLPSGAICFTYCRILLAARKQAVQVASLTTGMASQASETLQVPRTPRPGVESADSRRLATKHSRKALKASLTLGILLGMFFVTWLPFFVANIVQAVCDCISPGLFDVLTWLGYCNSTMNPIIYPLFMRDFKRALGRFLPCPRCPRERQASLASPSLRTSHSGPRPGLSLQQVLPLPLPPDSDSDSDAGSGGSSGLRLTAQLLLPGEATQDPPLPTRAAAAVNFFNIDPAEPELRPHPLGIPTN

On to `O=S(=O)(NCCCCN1CCC(c2noc3cc(F)ccc23)CC1)c1ccc(Cl)s1` [Compound 308, 5-Chloro-N-[4-[4-(6-fluoro-1,2-benzoxazol-3-yl)piperidin-1-yl]butyl]thiophene-2-sulphonamide], for which the inhibition at 1 µM in [1] came out at 92%; in experiment [2] it was 96%; in experiment [4], 57%; in experiment [5], 28%; in experiment [6] it was 99%; in experiment [7], 102%. Also, the inhibition at 1 µM turned out to be 95% in experiment [9]; 30% in [10]; 83% in experiment [11]; 96% in experiment [12]; 81% in experiment [13]. Besides, the “σ [%]” value in experiment [3] is reported as 86%. In addition, the “α1 [%]” value in experiment [8] stood at 91%.

For the compound `O=S(=O)(NCCCN1CCC(c2noc3cc(F)ccc23)CC1)c1cc2ccc(Cl)cc2s1` [Compound 347, 6-Chloro-N-[3-[4-(6-fluoro-1,2-benzoxazol-3-yl)piperidin-1-yl]propyl]benzothiophene-2-sulphonamide], the inhibition at 1 µM in experiment [1] is 98%; in [2], 103%; in experiment [4], 99%; in experiment [5], 33%; in [6], 100%; in experiment [7], 101%. Also, the inhibition at 1 µM in experiment [9] worked out at 103%; in experiment [10] it was 12%; in [11], 99%; in experiment [12] it was 110%; in experiment [13] it was 92%.

Take `O=S(=O)(NCCCN1CCN(c2nsc3ccccc23)CC1)c1ccc(Cl)c(Cl)c1` [Compound 251, N-[3-[4-(1,2-Benzothiazol-3-yl)piperazin-1-yl]propyl]-3,4-dichlorobenzenesulphonamide]: the inhibition at 1 µM in experiment [2] came out at 97%; in [4], 83%; in experiment [5] it was 87%; in experiment [6], 99%; in experiment [7] it was 101%; in [9] it was 97%. Further, the inhibition at 1 µM was determined as 8% in experiment [10], 99% in experiment [11], 96% in experiment [12] and 99% in experiment [13]. In addition, in experiment [3], the “σ [%]” value was 61%. In addition, the “α1 [%]” value in experiment [8] amounted to 95%.

Take `O=c1[nH]c2cccc(N3CCN(CCCNS(=O)(=O)c4ccc(Cl)cc4)CC3)c2[nH]1` [Compound 425, 4-chloro-N-[3-[4-(2-oxo-1,3-dihydrobenzimidazol-4-yl)piperazin-1-yl]propyl]-benzenesulphonamide]: the inhibition at 1 µM in experiment [1] is 6%; in experiment [2] it was 91%; in experiment [4], 24%; in [5] it was 10%; in experiment [6], 95%; in [7], 25%. Further, the inhibition at 1 µM was 104% in [9]; 2% in experiment [10]; 5% in [11]; 59% in experiment [12]; 98% in [13].

As for `O=S(=O)(NCCCN1CCN(c2nsc3ccccc23)CC1)c1ccc(F)c(Cl)c1` [Compound 64, N-[3-[4-(1,2-Benzothiazol-3-yl)piperazin-1-yl]propyl]-3-chloro-4-fluorobenzenesulphonamide], the inhibition at 1 µM in [1] is 98%; in experiment [2], 98%; in experiment [5] it was 80%; in [6], 99%; in experiment [7] it was 101%; in experiment [9], 98%. The inhibition at 1 µM was 7% in [10], 99% in experiment [11], 100% in experiment [12] and 99% in [13]. Besides, the “σ [%]” value in [3] was determined as 54%. Besides, the “α1 [%]” value in experiment [8] is recorded as 93%.

Consider `O=S(=O)(NCCCCN1CCN(c2cccc3c2OCCO3)CC1)c1cccc(Br)c1` [Compound 391, 3-Bromo-N-[4-[4-(2,3-dihydro-1,4-benzodioxin-5-yl)piperazin-1-yl]butyl]benzenesulphonamide], for which the inhibition at 1 µM in experiment [2] was 76%; in [5] it was -28%; in [6] it was 92%; in [7], 68%; in experiment [9] it was 85%; in experiment [11], 19%. Further, in [13], the inhibition at 1 µM amounted to 97%. For the same compound, the “α1 [%]” value in [8] is recorded as 90%.

In the case of `O=S(=O)(NCCCCN1CCC(c2noc3cc(F)ccc23)CC1)c1ccc(F)cc1` [Compound 294, 4-Fluoro-N-[4-[4-(6-fluoro-1,2-benzoxazol-3-yl)piperidin-1-yl]butyl]benzenesulphonamide], the inhibition at 1 µM in experiment [2] was 105%; in [5], -14%; in experiment [6] it was 94%; in experiment [7], 95%; in experiment [9], 95%; in experiment [11] it was 72%. Further, the inhibition at 1 µM in experiment [13] worked out at 23%. Also, the “α1 [%]” value in [8] stood at 101%.

`O=S(=O)(NCCCN1CCN(c2nsc3ccccc23)CC1)c1cnc2ccccn12` [Compound 76, N-[3-[4-(1,2-Benzothiazol-3-yl)piperazin-1-yl]propyl]imidazo[1,2-a]pyridine-3-sulphonamide]: the inhibition at 1 µM was 94% in experiment [2]; 15% in [5]; 86% in [6]; 81% in [7]; 71% in [9]; 70% in experiment [11]. Besides, the inhibition at 1 µM in [13] is 90%. Further, the “α1 [%]” value in experiment [8] came to 95%.
